Where “and” joins values, the source holds several entries; their conditions need not be identical. Identical values can stand only once.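 Briefly, cells in 96-well plates were exposed to five compound concentrations for 48 h, and endpoints were estimated by linear interpolation. At the GI50, growth is halved. The concentration for full growth arrest is given as TGI.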
Key:
Assay in all cases: DTP human tumour cell line panel, 48 h
786-0 renal = tested on: 786-0 renal
A498 renal = tested on: A498 renal
A549 NSCLC = tested on: A549 NSCLC
ACHN renal = tested on: ACHN renal
BT-549 breast = tested on: BT-549 breast
CAKI-1 renal = tested on: CAKI-1 renal
CCRF-CEM leukemia = tested on: CCRF-CEM leukemia
COLO 205 colon = tested on: COLO 205 colon
DU-145 prostate = tested on: DU-145 prostate
EKVX NSCLC = tested on: EKVX NSCLC
HCC-2998 colon = tested on: HCC-2998 colon
HCT-116 colon = tested on: HCT-116 colon
HCT-15 colon = tested on: HCT-15 colon
HL-60(TB) leukemia = tested on: HL-60(TB) leukemia
HOP-62 NSCLC = tested on: HOP-62 NSCLC
HOP-92 NSCLC = tested on: HOP-92 NSCLC
HS 578T breast = tested on: HS 578T breast
HT29 colon = tested on: HT29 colon
IGROV1 ovarian = tested on: IGROV1 ovarian
K-562 leukemia = tested on: K-562 leukemia
KM12 colon = tested on: KM12 colon
LOX IMVI melanoma = tested on: LOX IMVI melanoma
M14 melanoma = tested on: M14 melanoma
MALME-3M melanoma = tested on: MALME-3M melanoma
MCF7 breast = tested on: MCF7 breast
MDA-MB-231 breast = tested on: MDA-MB-231 breast
MDA-MB-435 = tested on: MDA-MB-435
MOLT-4 leukemia = tested on: MOLT-4 leukemia
NCI-H226 lung = tested on: NCI-H226 lung
NCI-H23 lung = tested on: NCI-H23 lung
NCI-H460 lung = tested on: NCI-H460 lung
NCI-H522 lung = tested on: NCI-H522 lung
NCI/ADR-RES ovarian = tested on: NCI/ADR-RES ovarian
OVCAR-3 ovarian = tested on: OVCAR-3 ovarian
OVCAR-4 ovarian = tested on: OVCAR-4 ovarian
OVCAR-5 ovarian = tested on: OVCAR-5 ovarian
OVCAR-8 ovarian = tested on: OVCAR-8 ovarian
PC-3 prostate = tested on: PC-3 prostate
RPMI-8226 leukemia = tested on: RPMI-8226 leukemia
RXF 393 renal = tested on: RXF 393 renal
SF-268 CNS = tested on: SF-268 CNS
SF-295 CNS = tested on: SF-295 CNS
SF-539 CNS = tested on: SF-539 CNS
SK-MEL-2 melanoma = tested on: SK-MEL-2 melanoma
SK-MEL-28 melanoma = tested on: SK-MEL-28 melanoma
SK-MEL-5 melanoma = tested on: SK-MEL-5 melanoma
SK-OV-3 ovarian = tested on: SK-OV-3 ovarian
SN12C renal = tested on: SN12C renal
SNB-19 CNS = tested on: SNB-19 CNS
SNB-75 CNS = tested on: SNB-75 CNS
SR leukemia = tested on: SR leukemia
SW-620 colon = tested on: SW-620 colon
T-47D breast = tested on: T-47D breast
TK-10 renal = tested on: TK-10 renal
U251 CNS = tested on: U251 CNS
UACC-257 melanoma = tested on: UACC-257 melanoma
UO-31 renal = tested on: UO-31 renal

COc1cc(Nc2ncc(F)c(Nc3ccc4c(n3)NC(=O)C(C)(C)O4)n2)cc(OC)c1OC
GI50 (786-0 renal): 1.03 µM and 1.27 µM | TGI (786-0 renal): > 100 µM | GI50 (A498 renal): 0.148 µM and 0.352 µM | TGI (A498 renal): 0.547 µM and 2.15 µM | GI50 (A549 NSCLC): 4.75 µM | TGI (A549 NSCLC): > 10 µM | GI50 (ACHN renal): 0.791 µM and 1.36 µM | TGI (ACHN renal): > 100 µM | GI50 (BT-549 breast): 3.24 µM | TGI (BT-549 breast): > 10 µM | GI50 (CAKI-1 renal): 0.618 µM | TGI (CAKI-1 renal): > 10 µM | GI50 (CCRF-CEM leukemia): 6.32 µM | TGI (CCRF-CEM leukemia): > 10 µM | GI50 (COLO 205 colon): 2.4 µM and 2.55 µM | TGI (COLO 205 colon): > 100 µM | GI50 (DU-145 prostate): > 10 µM | TGI (DU-145 prostate): > 10 µM | GI50 (EKVX NSCLC): 4.3 µM | TGI (EKVX NSCLC): > 10 µM | GI50 (HCC-2998 colon): > 100 µM | TGI (HCC-2998 colon): > 100 µM | GI50 (HCT-116 colon): > 100 µM | TGI (HCT-116 colon): > 100 µM | GI50 (HCT-15 colon): 4.75 µM | TGI (HCT-15 colon): > 10 µM | GI50 (HL-60(TB) leukemia): > 10 µM | TGI (HL-60(TB) leukemia): > 10 µM | GI50 (HOP-62 NSCLC): 1.38 µM and 4.74 µM | TGI (HOP-62 NSCLC): > 100 µM | GI50 (HOP-92 NSCLC): 0.302 µM | TGI (HOP-92 NSCLC): 4.85 µM | GI50 (HS 578T breast): 0.218 µM and 0.787 µM | GI50 (HT29 colon): 1.32 µM and 2.01 µM | TGI (HT29 colon): > 100 µM | GI50 (IGROV1 ovarian): 0.43 µM | TGI (IGROV1 ovarian): > 10 µM | GI50 (K-562 leukemia): > 100 µM | TGI (K-562 leukemia): > 100 µM | GI50 (KM12 colon): 0.366 µM and 0.527 µM | TGI (KM12 colon): > 100 µM | GI50 (LOX IMVI melanoma): 1.57 µM | TGI (LOX IMVI melanoma): > 10 µM | GI50 (M14 melanoma): > 100 µM | TGI (M14 melanoma): > 100 µM | GI50 (MALME-3M melanoma): > 100 µM | TGI (MALME-3M melanoma): > 100 µM | GI50 (MCF7 breast): 3.93 µM | TGI (MCF7 breast): > 10 µM | GI50 (MDA-MB-231 breast): 3.09 µM | TGI (MDA-MB-231 breast): > 10 µM | GI50 (MDA-MB-435): > 10 µM | TGI (MDA-MB-435): > 10 µM | GI50 (MOLT-4 leukemia): 3.38 µM and 6.7 µM | TGI (MOLT-4 leukemia): > 100 µM | GI50 (NCI-H226 lung): 0.4 µM and 0.393 µM | TGI (NCI-H226 lung): > 100 µM | GI50 (NCI-H23 lung): 6.29 µM | TGI (NCI-H23 lung): > 10 µM | GI50 (NCI-H460 lung): > 100 µM | TGI (NCI-H460 lung): > 100 µM | GI50 (NCI-H522 lung): 1.94 µM and 1.43 µM | TGI (NCI-H522 lung): > 100 µM | GI50 (NCI/ADR-RES ovarian): > 10 µM | TGI (NCI/ADR-RES ovarian): > 10 µM | GI50 (OVCAR-3 ovarian): > 100 µM | TGI (OVCAR-3 ovarian): > 100 µM | GI50 (OVCAR-4 ovarian): > 100 µM | TGI (OVCAR-4 ovarian): > 100 µM | GI50 (OVCAR-5 ovarian): 3.85 µM | TGI (OVCAR-5 ovarian): > 10 µM | GI50 (OVCAR-8 ovarian): > 100 µM | TGI (OVCAR-8 ovarian): > 100 µM | GI50 (PC-3 prostate): > 10 µM | TGI (PC-3 prostate): > 10 µM | GI50 (RPMI-8226 leukemia): > 100 µM | TGI (RPMI-8226 leukemia): > 100 µM | GI50 (RXF 393 renal): 0.418 µM | TGI (RXF 393 renal): 5.89 µM | GI50 (SF-268 CNS): 3.6 µM | TGI (SF-268 CNS): > 10 µM | GI50 (SF-295 CNS): 4.4 µM | TGI (SF-295 CNS): > 10 µM | GI50 (SF-539 CNS): 0.916 µM | TGI (SF-539 CNS): 9.38 µM | GI50 (SK-MEL-2 melanoma): > 100 µM | TGI (SK-MEL-2 melanoma): > 100 µM | GI50 (SK-MEL-28 melanoma): > 100 µM | TGI (SK-MEL-28 melanoma): > 100 µM | GI50 (SK-MEL-5 melanoma): > 100 µM | TGI (SK-MEL-5 melanoma): > 100 µM | TGI (SK-OV-3 ovarian): > 100 µM | GI50 (SN12C renal): 0.667 µM and 2.86 µM | TGI (SN12C renal): > 100 µM | GI50 (SNB-19 CNS): > 100 µM | TGI (SNB-19 CNS): > 100 µM | GI50 (SNB-75 CNS): 0.385 µM | TGI (SNB-75 CNS): > 10 µM | GI50 (SR leukemia): 2.71 µM and > 10 µM | TGI (SR leukemia): > 100 µM | GI50 (SW-620 colon): > 10 µM | TGI (SW-620 colon): > 10 µM | TGI (T-47D breast): > 100 µM | GI50 (TK-10 renal): 0.677 µM | TGI (TK-10 renal): > 10 µM | GI50 (U251 CNS): > 10 µM | TGI (U251 CNS): > 10 µM | GI50 (UACC-257 melanoma): > 10 µM | TGI (UACC-257 melanoma): > 10 µM | GI50 (UO-31 renal): 0.679 µM | TGI (UO-31 renal): > 10 µM
